{"source": "patent US20190169218A1", "about": "“AMPHIPATHIC COMPOUND HAVING NOVEL PENTA-SACCHARIDE HYDROPHILIC GROUP AND USE THEREOF” (Industry-University Cooperation Foundation Hanyang …, priority 2016, published 2019)", "key": {"[1]": {"test_system": "T4L-β2AR-Gs or β2AR-Gs complexes", "settings": "purified by DDM, 4° C., reported in the prior art; cited from earlier work"}, "[2]": {"test_system": "T4L-β2AR-Gs or β2AR-Gs complexes", "experiment": "purification and stability of T4L-β2AR-Gs or β2AR-Gs complexes (analytical gel filtration, negative staining EM)", "parameters": "species or system human", "experimental": "The ability of PSE-C11 or TPS-E10L to purify and stabilize T4L-β2AR-Gs or β2AR-Gs complexes was measured using electron microscopy (EM) analysis.\nSpecifically, measurement of the ability of PSE-C11 for TPS-E10L to purify and stabilize T4L-β2AR-Gs or β2AR-Gs complexes was performed as follows. 100 μM T4L-β2AR solubilized in 0.1 wt % DDM was mixed with 120 μM Gs heterotrimers for 30 minutes. 0.5 units of apyrase (NEB) and 2 mM MgCl2 were added to the mixture, followed by a 1-hour incubation to form complexes. 1 wt % PSE-C11 or TPS-E10L was respectively added to the mixture to achieve a final concentration of 0.8%, and incubated for 30 minutes to allow DDM to be exchanged with PSE-C11 or TPS-E10L. […] Finally, proteins were eluted with a 0.05% (100×CMC) PSE-C11 or TPS-E10L buffer. Gel filtration was performed using a running buffer (20 mM HEPES (pH 7.5), 100 mM NaCl, 0.005% PSE-C11 or TPS-E10L, 1 μM BI, 100 μM TCEP) to purify T4L-β2AR-Gs complexes. To measure the stability of β2AR-Gs complexes present in PSE-C11 or TPS-E10L, analytical gel filtration was performed with running buffers of the same formulation at 12 hours, 1 day, 3 days, 7 days, and 15 days. After a 15 day-incubation, analytical gel filtration was performed using an amphiphilic compound pre-buffer having the same formulation as above without PSE-C11 or TPS-E10L.\nIn addition, negative staining EM analysis for T4L-β2AR-Gs or β2AR-Gs complexes present in PSE-C11 was performed as follows. Samples containing T4L-β2AR-Gs or β2AR-Gs were prepared to perform electron microscopy analysis using a conventional negative staining protocol (see Peisley, A. et al., G Protein-Coupled Receptors in Drug Discovery: Methods and Protocols, Methods in Molecular Biology, 1335, 29-38 (2015)), and imaging was performed by operating a Tecnai T12 electron microscope at 120 kV at room temperature. Images were recorded with a Gatan US4000 CCD camera at a 71,138×magnification with a defocus value of ˜[…]."}, "[3]": {"molecular_target": "T1, uric acid-xanthine/H+ symporter (UapA) (Emericella nidulans, UniProt Q07307, G411V)", "T1 construct": "GFP; made in house; host or cells: Saccharomyces cerevisiae FGY217", "T1 sequence (Q07307 12-574 G411V)": "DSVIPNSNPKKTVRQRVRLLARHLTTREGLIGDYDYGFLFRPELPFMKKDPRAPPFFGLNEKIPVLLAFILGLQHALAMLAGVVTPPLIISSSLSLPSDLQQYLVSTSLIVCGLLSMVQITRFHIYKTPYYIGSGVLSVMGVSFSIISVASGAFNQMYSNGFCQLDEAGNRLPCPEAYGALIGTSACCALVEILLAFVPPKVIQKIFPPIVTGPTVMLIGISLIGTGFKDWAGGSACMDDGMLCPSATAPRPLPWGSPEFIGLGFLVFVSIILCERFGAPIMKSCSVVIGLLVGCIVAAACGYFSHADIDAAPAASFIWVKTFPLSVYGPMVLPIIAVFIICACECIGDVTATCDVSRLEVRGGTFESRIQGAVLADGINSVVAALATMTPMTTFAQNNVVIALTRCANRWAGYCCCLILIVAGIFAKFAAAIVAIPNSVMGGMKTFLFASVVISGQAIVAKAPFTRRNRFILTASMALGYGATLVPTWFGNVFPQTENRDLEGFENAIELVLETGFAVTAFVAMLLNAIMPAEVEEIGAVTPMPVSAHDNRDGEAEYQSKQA", "experiment": "thermal stability of UapA by CPM analysis", "parameters": "species or system Aspergillus nidulans", "settings": "CMC+0.04 wt % and CMC+0.2 wt %, 40° C., 120 minutes", "experimental": "The ability of TPSs (TPS-As, TPS-Es and TPS-ELs) to stabilize the structure of uric acid-xanthine/H+ symporter (UapA) isolated from Aspergillus nidulans was measured. The structural stability of UapA was evaluated using a sulfhydryl-specific fluorophore, N-[4-(7-diethylamino-4-methyl-3-coumarinyl)phenyl]maleimide (CPM).\nSpecifically, UapAG411V1-11 (hereinafter, referred to as ‘UapA’) was expressed in a Saccharomyces cerevisiae FGY217 strain as a GFP fusion protein, and was isolated using a sample buffer (20 mM Tris (pH 7.5), 150 mM NaCl, 0.03% DDM, 1 mM xanthine). The transporter was concentrated to about 10 mg/mL using a 100 kDa molecular weight cut-off filter (Millipore). The transporter was diluted with a CMC+0.04 wt % or CMC+0.2 wt % buffer at a ratio of 1:150 in a Greiner 96-well plate containing one of TPS-As (TPS-A6, TPS-A7 or TPS-A8), TPS-Es (TPS-E6, TPS-E7 or TPS-E8), TPS-ELs (TPS-E8L, TPS-E9L, TPS-E10L or TPS-E11L), MNG-3 or DDM (control group). […] During incubation, fluorescence emission intensity was monitored using a microplate spectrophotometer set at excitation and emission wavelengths of 387 and 463 nm, respectively. The maximum value of fluorescence intensity was used to calculate the relative percentage of folded transporters during the incubation period. […]"}}}
{"smiles": "CCCCCCCCCCCCO[C@@H]1O[C@H](CO)[C@@H](O[C@H]2O[C@H](CO)[C@@H](O)[C@H](O)[C@H]2O)[C@H](O)[C@H]1O", "note": "[DDM, n-dodecyl-β-D-maltopyranoside, reference compound]", "values": [{"measurement": "stability of T4L-β2AR-Gs complexes", "setting": "[1]", "value": "complex separation was observed even after 2 days of incubation"}]}
{"smiles": "CCCCCCCCCCCOCC(COCCCCCCCCCCC)O[C@@H]1OC(CO[C@@H]2OC(CO)[C@@H](O)C(O)C2O)[C@@H](O[C@@H]2OC(CO)[C@@H](O)C(O)C2O)C(O[C@@H]2OC(CO)[C@@H](O)C(O)C2O)C1O[C@@H]1OC(CO)[C@@H](O)C(O)C1O", "note": "(stereo partly shown) [PSE-C11]", "values": [{"measurement": "stability of β2AR-Gs complexes (analytical gel filtration)", "setting": "[2]; after incubation for 15 and 17 days", "value": "no separation of the complexes was observed at all"}, {"measurement": "stability of complexes", "setting": "[2]; buffer without the amphipathic compound as eluent", "value": "completely stable"}]}
{"smiles": "CCCCCCCCOCC(COCCCCCCCC)(COCCCCCCCC)CO[C@@H]1OC(CO[C@@H]2OC(CO)[C@@H](O)C(O)C2O)[C@@H](O[C@@H]2OC(CO)[C@@H](O)C(O)C2O)C(O[C@@H]2OC(CO)[C@@H](O)C(O)C2O)C1O[C@@H]1OC(CO)[C@@H](O)C(O)C1O", "note": "(stereo partly shown) [TPS-E8]", "values": [{"measurement": "maintaining folding state of UapA (CPM)", "setting": "[3]", "value": "the most excellent among TPS-As/Es"}]}
